Experimental data taken from patent US8722673B2, “Imine compounds for combating invertebrate pests” (BASF SE, priority 2008, dated 2014).

How the values were obtained:
Assay type in all cases: in vivo
[1] = test system: Western Flower Thrips (Frankliniella occidentalis); assay: Western flower thrips glass vial and leaf disc test; conditions: 300 ppm; larvae or adults; 2 DAT
Protocol: Serial dilutions of each technical grade AI were made in pure acetone. 0.5 ml of the treatment solution was deposited into the bottom of a glass vial (scintillation vial). The cap was screwed back onto the vial and inverted for about five seconds. The cap was subsequently removed and the vial laid on its side and rolled constantly, on a hot dog roller, until all the acetone had flashed off and the inner surface of the vial was dry. Cotton leave discs were also dipped simultaneously into the treatment solutions and allowed to dry. After the vials were dried, the leave discs were placed into the vials to serve as a food/water source for the thrips. Each treatment was replicated 5-fold. Western flower thrips were aspirated into the vials, approximately 5 larvae or adults/vial. Following treatment application the vials were held in a holding room under fluorescent light and constant 26° C. Thrips mortality was assessed at 2 DAT (days after treatment), counting all thrips both dead and alive.

[2] = test system: Brown Dog Tick Adults (Rhipicephalus sanguineus); assay: Brown dog tick adults glass vial contact assay; conditions: 100 ppm; 3 DAT (days after treatment)
Protocol: (§1) If not otherwise specified, the tests were conducted as glass vial contact assays. Glass vials (20 ml scintillation vials) were used. Treatment solutions were mixed with technical grade chemicals diluted in acetone. Treatment solutions needed for the assays included generally 1 and 10 ppm (0.01 and 0.1 μg/cm^2, respectively), but optionally also 100 and/or 1000 ppm for first tier vials. As commercial standard, alphacypermethrin was run at 1 ppm. As solvent control, acetone was used for the assay. Treatment solution was pipetted into the bottom of each vial. Each vial was turned on its side and placed onto a commercial grade hot dog roller without applying heat. The uncapped vials were allowed to roll to allow for the acetone treatment to vent off. After drying, the vials were placed into the compartmented vial shipping boxes. The workstation was prepared by chilling the table and plastic Petri dishes with the inside wall coated with Fluon. A weigh boat of 10% sugar water saturated cotton dental pellets was also prepared. The animal pests were collected into a tube with a rechargeable insect vacuum. The tube of animal pests was placed in a laboratory refrigerator until the animal pests were incapacitated. […]
Treatment solutions were mixed with test compound diluted in acetone at concentrations of 10 and 100 ppm. […] Ticks were evaluated by rolling the vials on a preheated hotdog roller. […]

[3] = test system: Acrobat Ant Workers (Crematogaster sp.); assay: Acrobat ant workers glass vial contact assay; conditions: 100 ppm; 48 h after treatment
Protocol: as §1, with “incapacitated. The animal pests were emptied into chilled Petri dish. A small cotton dental pellet was soaked in water or in 10 wt % sugar water, whereas the excess solution was gently squeezed out.” for “incapacitated.”

Measured: mortality in comparison with untreated controls

Cc1cc(C2=NOC(c3cc(Cl)cc(Cl)c3)(C(F)(F)F)C2)ccc1C=NNC(=O)NCC(F)(F)F (stereo not drawn) [Compound 1-48]
at least 75%: [1] | [2] | [3]
